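In this assay, cells in 96-well plates receive the compound at five concentrations for 48 hours. Endpoints are linearly interpolated between the surrounding concentrations. GI50 = concentration required for 50% inhibition of growth. Definition used: TGI = concentration required for complete inhibition of growth.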

Among the test systems are HOP-92 NSCLC; UACC-62 melanoma; SK-MEL-28 melanoma; BT-549 breast; SN12C renal; COLO 205 colon; OVCAR-8 ovarian; SW-620 colon; T-47D breast; CCRF-CEM leukemia.
Common to all, as to test: DTP human tumour cell line panel, 48 h

With `COc1cc(N(CCC#N)CCC#N)ccc1/C(N=Nc1ccc(C(=O)O)cc1)=N/NC(=O)c1cc(Br)ccc1O`, the GI50 – broadly, the concentration that inhibits growth by half – in the experiment with HOP-92 NSCLC was greater than 150 µg/mL; in the experiment with UACC-62 melanoma it was 149 µg/mL; in the experiment on SK-MEL-28 melanoma, greater than 150 µg/mL; in the experiment on BT-549 breast it was greater than 150 µg/mL; in the experiment with SN12C renal, 102 µg/mL; in the experiment with COLO 205 colon, 43.3 µg/mL. The GI50 in the experiment with OVCAR-8 ovarian was 50.6 µg/mL; with SW-620 colon, greater than 150 µg/mL; in the experiment with T-47D breast it was 64.4 µg/mL; with CCRF-CEM leukemia, 82.4 µg/mL. Further, the total growth inhibition concentration (TGI) (in general, the concentration giving total growth inhibition) was greater than 150 µg/mL in the experiment on HOP-92 NSCLC; greater than 150 µg/mL in the experiment with UACC-62 melanoma; greater than 150 µg/mL in the experiment on SK-MEL-28 melanoma; greater than 150 µg/mL with BT-549 breast; greater than 150 µg/mL with SN12C renal; 140 µg/mL in the experiment with COLO 205 colon. The TGI in the experiment with OVCAR-8 ovarian, in the experiment on SW-620 colon, in the experiment with T-47D breast and with CCRF-CEM leukemia was greater than 150 µg/mL in each case.

Turning to `Cc1ccc(C2=C(Cl)C(=O)C(c3ccc(C)cc3)=C(Cl)C2=O)cc1`, the total growth inhibition concentration (TGI) with HOP-92 NSCLC, in the experiment with UACC-62 melanoma, in the experiment on SK-MEL-28 melanoma, with BT-549 breast, in the experiment with SN12C renal and with COLO 205 colon was greater than 100 µM each time. Also, the total growth inhibition concentration (TGI) in the experiment with OVCAR-8 ovarian, in the experiment with SW-620 colon, with T-47D breast and with CCRF-CEM leukemia was greater than 100 µM in each case.

Take `Cn1ccnc1C(=O)/C=C/c1ccc(C(=O)Nc2c(F)c(F)c(F)c(F)c2F)cc1`: the GI50 is 2.11 µM in the experiment on HOP-92 NSCLC; 2.08 µM in the experiment on UACC-62 melanoma; 2.17 µM with SK-MEL-28 melanoma; 1.43 µM in the experiment on BT-549 breast; 1.77 µM in the experiment on SN12C renal; 1.82 µM in the experiment with COLO 205 colon. Besides, the GI50 in the experiment on OVCAR-8 ovarian is 1.72 µM; in the experiment with SW-620 colon, 1.19 µM; with T-47D breast, 1.29 µM; in the experiment with CCRF-CEM leukemia, 1.68 µM. The concentration for total growth inhibition (TGI) amounted to 7.33 µM with HOP-92 NSCLC; 5.17 µM with UACC-62 melanoma; 5.19 µM with SK-MEL-28 melanoma; 2.75 µM in the experiment on BT-549 breast; 3.69 µM in the experiment with SN12C renal; 3.63 µM in the experiment on COLO 205 colon. Besides, the concentration for total growth inhibition (TGI) came out at 4.04 µM in the experiment with OVCAR-8 ovarian, 2.86 µM in the experiment with SW-620 colon, 3.4 µM in the experiment with T-47D breast and 4.95 µM in the experiment with CCRF-CEM leukemia.

For `C=CCN=C(N/N=C/c1ccc([N+](=O)[O-])o1)NS(=O)(=O)c1cc(C(=O)Nc2ccccc2)c(Cl)cc1SCC(N)=O`, the GI50 was 13.6 µM in the experiment on HOP-92 NSCLC; 17.3 µM in the experiment with UACC-62 melanoma; 37.6 µM with SK-MEL-28 melanoma; 10.4 µM in the experiment on BT-549 breast; 29 µM in the experiment on SN12C renal; 6.55 µM in the experiment with COLO 205 colon. Moreover, the GI50 with OVCAR-8 ovarian is 29.6 µM; with SW-620 colon it was 5.99 µM; with T-47D breast, 23.1 µM; in the experiment on CCRF-CEM leukemia it was 5.73 µM. Also, the total growth inhibition concentration (TGI) was 52.2 µM in the experiment with HOP-92 NSCLC; 33.3 µM in the experiment on UACC-62 melanoma; greater than 100 µM in the experiment with SK-MEL-28 melanoma; 31.8 µM with BT-549 breast; greater than 100 µM with SN12C renal; greater than 100 µM in the experiment on COLO 205 colon. The total growth inhibition concentration (TGI) with OVCAR-8 ovarian was greater than 100 µM; with SW-620 colon, 37.4 µM; in the experiment on T-47D breast it was greater than 100 µM; with CCRF-CEM leukemia, 27.6 µM.

For the molecule `CNCc1cccc2c1OCCOCCOCCC(C)S(=O)(=O)c1ccc(cc1)-c1cnc(N)c(n1)C(=O)N2` (stereo not given), the GI50 with HOP-92 NSCLC was 11.5 µM; in the experiment with UACC-62 melanoma it was 1.67 µM; in the experiment with SK-MEL-28 melanoma, 1.77 µM; with BT-549 breast it was 1.53 µM; with SN12C renal, 1.24 µM; with COLO 205 colon, 0.564 µM. Besides, the GI50 in the experiment on OVCAR-8 ovarian is 1.78 µM; in the experiment on SW-620 colon, 2.13 µM; with T-47D breast it was 3.62 µM; in the experiment on CCRF-CEM leukemia it was 0.67 µM. Moreover, the total growth inhibition concentration (TGI) is 25 µM with HOP-92 NSCLC; 3.3 µM in the experiment on UACC-62 melanoma; 3.37 µM with SK-MEL-28 melanoma; 5.23 µM with BT-549 breast; 3.14 µM in the experiment with SN12C renal; 5.25 µM with COLO 205 colon. In addition, the total growth inhibition concentration (TGI) stood at 7.9 µM in the experiment with OVCAR-8 ovarian, 10.7 µM in the experiment with SW-620 colon, 18.7 µM in the experiment on T-47D breast and 7.2 µM in the experiment on CCRF-CEM leukemia.

The values are drawn from PubChem BioAssay (NCI).
